# Experimental data: patent US11383009B2, “Rapamycin 40-O-cyclic hydrocarbon esters, compositions and methods” (BIOTRONIK AG, priority 2012, dated 2022)
# Where “and” joins values, the source holds several entries; their conditions need not be identical. Equal entries are not always repeated.
# Experiments:
# [1] = Drug stability in rabbit vitreous humour at 37° C.; format: in vitro ADME, New Zealand White rabbit
# Source text: (§1) The assay comparison between sirolimus and the compounds of the present invention (denoted as CRC) is further described at Table XI.
# [2] = Drug elution and total recovery from polymer-coated stents; format: physicochemical; details: single stent, 1:1 drug/polylactic acid coating; 25% ethanol in water, 37° C., 168 hours elution plus exhaustive acetonitrile extraction
# Description: This section examines the stability of the compounds of the invention when released from a reservoir over a several-day to several-week period. In one study, a series of stents were prepared with a suitable coating of drug/polymer mixture. The stents were fabricated from laser cut and electropolished 316L Stainless Steel and measured 16 millimeters in length. The coating mixture contained an equal weight of polylactic acid and each of the compounds to be evaluated. The mixture components were weighed, combined in a glass vial with acetone at room temperature and then vortexed until all of the materials dissolved. Each individual stent was weighed using a Mettler model XP105 balance. […]
# After visual inspection the stents were mounted onto 3.0 mm×16 mm angioplasty balloons using a hand crimper. […] The appropriate pressure for inflation was determined using the inflation table applicable to the angioplasty catheter. […]
# For elution comparison each stent was transferred into its respective 7-mL borosilicate vial and 4.0 mL 25% ethanol in water (w/w) elution medium was added. […] The amount of drug eluted during each time interval was determined by HPLC. After a cumulative incubation of 168 hours, the remaining drug in each stent was determined by exhaustive extraction by adding 4.0 mL acetonitrile to each stent for 20 minutes at ambient temperature followed by vortexing for 10 seconds. […]
# [3] = system: vascular restenosis, porcine coronary arteries; experiment: Trial B: coated magnesium stents implanted in porcine coronary arteries, 28 days; details: Group 1 (n = 5 stents), 223 μg drug in polylactic acid on parylene C coated magnesium stent; 28 days post-implant
# Source text: Coronary artery measurements were made from angiographic images before stent deployment, immediately after deployment, and twenty-eight days after deployment to determine the effectiveness of the coated stent in reducing restenosis. Determination of angiographic late loss was made by subtraction of the minimum vessel lumen diameter of the stented vessel at 28 days post-implant from the minimal vessel lumen diameter at the time of implant. Determination of percent diameter stenosis was made at 28 days post-implant by the calculation of 100(1-MLD/refdia.) where MLD represents the minimum vessel lumen diameter at 28 days post-implant and refdia. is the average diameter of the vessel sections adjacent to the stented vessel.
# [4] = Drug stability in rabbit aqueous humour at 37° C.; format: in vitro ADME
# Source text: as §1
# [5] = Stent coating condition after stent expansion (ductility); details: coating of 1:1 weight ratio drug and polylactic acid; compared with rapamycin coating
# Source text: In accordance with one of the unexpected advantages of the present invention, it has been discovered that a coating formed with the compounds of the present invention is substantially more ductile, i.e., less prone to cracking, than a coating formed with rapamycin. This property can be seen from the photomicrographs of FIGS. 1 and 2, which show the condition of a stent coating after stent expansion in a stent formed of a 1:1 weight ratio of […] and polylactic acid (FIG. 1) and a coating formed of a 1:1 weight ratio of Compound 1 (Table I) and polylactic acid (FIG. 2). […] An important advantage of the drug compound in this setting is that a coating with a high drug:polymer ratio can be prepared without the need for addition of a separate plasticizer, which may cause toxic responses, affect drug elution rates, and extend development times and increase production costs.
# [6] = 72 hours, drug dose 48.4 μg (SIR 1), 52.2 μg (CRC 1)
# [7] = […], drug dose 47.8 μg (SIR 2), 54.0 μg (CRC 2)
# [8] = 72 hours, drug dose 45.2 μg (SIR 1), 51.4 μg (CRC 1)
smiles,measurement,setting,value
CO[C@H]1C[C@@H]2CC[C@@H](C)[C@@](O)(O2)C(=O)C(=O)N2CCCC[C@H]2C(=O)O[C@H]([C@H](C)C[C@@H]2CC[C@@H](O)[C@H](OC)C2)CC(=O)[C@H](C)/C=C(\C)[C@@H](O)[C@@H](OC)C(=O)[C@H](C)C[C@H](C)/C=C/C=C/C=C/1C [Rapamycin],Degradants (HPLC UV Area Percent),[1]; 0 hrs,3%
same,Intact drug (HPLC UV Area Percent),[1]; 0 hrs,97%
same,Degradants (HPLC UV Area Percent),[1]; 1 hrs,3%
same,Intact drug (HPLC UV Area Percent),[1]; 1 hrs,97%
same,Degradants (HPLC UV Area Percent),[1]; 4 hrs,7%
same,Intact drug (HPLC UV Area Percent),[1]; 4 hrs,93%
same,Degradants (HPLC UV Area Percent),[1]; 24 hrs,43%
same,Intact drug (HPLC UV Area Percent),[1]; 24 hrs,57%
same,Degradants (HPLC UV Area Percent),[1]; 48 hrs,71%
same,Intact drug (HPLC UV Area Percent),[1]; 48 hrs,29%
same,% Remaining (72 Hours),[1]; [6],8%
same,Drug Remaining 72 Hours,[1]; [6],4.0 µg
same,Degradants (HPLC UV Area Percent),[1]; 72 hrs,84%
same,Intact drug (HPLC UV Area Percent),[1]; 72 hrs,16%
same,% Remaining (192 Hours),[1]; [7],1%
same,Drug Remaining 192 Hours,[1]; [7],0.6 µg
same,Total Drug (μg) Recovered,[2],109.1 µg and 84.6 µg and 103.4 µg and 125.2 µg and 71.6 µg
same,Angiographic Late Loss,[3],0.42 mm
same,Diameter Stenosis,[3],13.1%
same,Degradants (HPLC UV Area Percent),[4]; 0 hrs,2%
same,Intact drug (HPLC UV Area Percent),[4]; 0 hrs,98%
same,Degradants (HPLC UV Area Percent),[4]; 1 hrs,4%
same,Intact drug (HPLC UV Area Percent),[4]; 1 hrs,96%
same,Degradants (HPLC UV Area Percent),[4]; 4 hrs,18%
same,Intact drug (HPLC UV Area Percent),[4]; 4 hrs,82%
same,Degradants (HPLC UV Area Percent),[4]; 24 hrs,86%
same,Intact drug (HPLC UV Area Percent),[4]; 24 hrs,14%
same,Degradants (HPLC UV Area Percent),[4]; 48 hrs,96%
same,Intact drug (HPLC UV Area Percent),[4]; 48 hrs,4%
same,% Remaining (72 Hours),[4]; [8],0%
same,Drug Remaining 72 Hours,[4]; [8],0.0 µg
same,Degradants (HPLC UV Area Percent),[4]; 72 hrs,100%
same,Intact drug (HPLC UV Area Percent),[4]; 72 hrs,0%
"COC1CC2CCC(C)C(O)(O2)C(=O)C(=O)N2CCCCC2C(=O)OC(C(C)CC2CCC(OC(=O)C3CC3)C(OC)C2)CC(=O)C(C)C=C(C)C(O)C(OC)C(=O)C(C)CC(C)C=CC=CC=C1C (stereo not shown) [Compound 1, Rapamycin 40-O-Cyclic Hydrocarbon Ester with Cyclopropanecarbonyl Chloride]",condition of stent coating after stent expansion (ductility),[5],more ductile
